# Measured values taken from patent publication EP2667887B1, “PHARMACEUTICAL COMPOSITION COMPRISING THE PEPTIDE GLU-ASP-GLY AND USE FOR TREATING HELICOBACTER PYLORI INDUCED GASTRODUODENAL DISEASES” («Garmonia», Ltd., priority 2011, dated 2012).
# How the values were obtained:
# [1] = tested on: gastric epithelial cell mitochondria; assay: Mitochondrial GFP expression in gastric epithelium after ulcer induction (confocal microscopy, in vivo study); parameters: species or system Sprague Dawley rats; details: both methods, three doses
# Method: The study was carried out on 90 male Sprague Dawley rats (180-220 g) randomly subdivided into 9 groups (10 animals per group): • Group 1 - intact rats (saline solution) • Group 2 - modeled ulcer + saline solution • Group 3 (6 subgroups) - modeled ulcer + H-Glu-Asp-Gly-OH • Group 4 - modeled ulcer + Klacid antibiotic
# Ulcer was modeled by three-time administration (in 4 hours) in the rat stomach of cysteamine-HCL (Aldrich, Milwannee, WI) by means of a probe in the dose of 25 mg per 100 g of body weight. The ulcer, approximately 28 mm^2 in size, appeared at the boundary between antral and fundal segments of the stomach 12 hours after the last administration. Simultaneously with the first administration of cysteamine-HCL a Helicobacter pylori culture (Curtin Matheson Scientific Inc, strain Cag J117, 100 microbial cells) was administered in the rat stomach through the same probe.
# A means on the basis of the pharmaceutical composition comprising the studied peptide H-Glu-Asp-Gly-OH was administered subcutaneously in the dose of 1 µg per kg of animal body weight (group 3a), 2,5 µg per kg of body weight (group 3b) and 10 µg per kg of body weight (group 3c) in 0,5 ml of saline solution daily, for 5 days from the occurrence of the stomach ulcer.
# The means on the basis of the pharmaceutical composition comprising the studied peptide H-Glu-Asp-Gly-OH was administered intragastrically (through a probe) in the dose of 1 µg per kg of animal body weight (group 3d), 2,5 µg per kg of body weight (group 3e) and 10 µg per kg of body weight (group 3f) in 0,5 ml of saline solution daily, for 5 days from the occurrence of the stomach ulcer. […]
# The status of isolated mitochondria was assessed using immunofluorescent confocal laser microscopy. […]
# Confocal microscopy of mitochondria with optical density evaluation was carried out in an inverted confocal microscope Olympus Fluoview CM FV300-IX70 using an apochromatic lens 606 UPlan (Olympus). A 488 nm excitation wave of argon laser was used in each chamber to specify mito-GFP fluorescence that verifies the structure of mitochondria.
# [2] = Chronic toxicity study, 6 months; assay type: in vivo, male guinea pigs; details: guinea pigs
# Text: General toxicity of peptide H-Glu-Asp-Gly-OH was studied in accordance with the requirements of "Manual for Experimental (Pre-Clinical) Study of New Pharmacological Substances" (2000): acute toxicity in case of a single administration of the preparation, as well as subacute and chronic toxicity in case of a long-term administration of the peptide.
# Chronic toxicity was studied for 6 months basing on the duration of the recommended clinical administration of the preparation on 92 male guinea pigs with body weight 310-350 g. Experimental animals were treated with the peptide daily, once a day, intramuscularly for 6 months in the doses of 1 µg/kg, 0,1 mg/kg, 1 mg/kg in 0,5 ml of sterile 0,9% NaCl solution. Control animals received sterile 0,9% NaCl solution according to the same scheme and in the same volume. The following indices were identified in the peripheral blood of the animals using traditional methods: quantity of erythrocytes, hemoglobin, reticulocytes, thrombocytes, leukocytes, leukocyte formula, erythrocyte sedimentation rate (ESR), erythrocyte resistance. Further, total protein was identified in the blood serum by the Lowry method, as well as potassium and sodium using plasma spectrophotometry method. […]
substance,measurement,setting,value
glutamyl-aspartyl-glycine [H-Glu-Asp-Gly-OH],"mitochondrial GFP expression (optical density), 7th day","[1]; 7th day after ulcer induction, intact 3.12±0.22, ulcer 0.54±0.02",2.86±0.21 conv. units
same,"mitochondrial GFP expression (optical density), 15th day","[1]; 15th day after ulcer induction, intact 3.17±0.18, ulcer 0.87±0.04",3.03±0.16 conv. units
same,"mitochondrial GFP expression (optical density), 21st day","[1]; 21st day after ulcer induction, intact 3.19±0.18, ulcer 1.67±0.09",3.16±0.18 conv. units
same,chronic toxicity,"[2]; intramuscularly daily for 6 months, 1 µg/kg, 0,1 mg/kg, 1 mg/kg, doses exceed the therapeutic one by 100-1000 times",no side effects
same,"effect on the ESR, erythrocyte resistance and biochemical indices of the blood serum",[2]; long-term administration,No significant effect
